{"source": "patent US10842852B2", "about": "“Methods of delivering a polypeptide molecule to Otx2 target cells using an Otx2 targeting peptide” (Centre National de la Recherche Scientifique, priority 2009, dated 2020)", "key": {"[1]": {"tested_on": "retinal ganglion neurons", "experiment": "Survival of retinal ganglion neurons after NMDA injection into the eye (Brn3A mRNA, quantitative RT-PCR)", "format": "in vivo, C57 B16 mice", "conditions": "mice, after 4 days", "procedure": "C57 B16 mice received, in the right eye, 1 μl of injection buffer (PBS or 9‰ NaCl) containing either 1 mM of NMDA, or 1 mM of NMDA supplemented with 30 ng of the chimeric polypeptide, and in the left eye, the same volume of injection buffer, without additive.\nThe survival of the ganglion neurons was determined by measuring the level of expression of Brain 3A (Brn3A), a transcription factor which, in the retina, is specifically expressed in the ganglion neurons (Xiang et al., J. Neurosci., 15, 4762-4785, 1995).\nAfter 4 days, the animals are sacrificed, the retinas are removed, and the mRNA is extracted therefrom.\nThe level of expression of Bm3A mRNA was determined by quantitative RT-PCR using the hypoxanthine phosphoribosyltransferase (HPRT) gene as reference gene, and the ratio between the expression of the Bm3A mRNA in the right eye and in the left eye was calculated.\nThe results are illustrated by FIG. 5. The additives used are indicated along the x-axis; the ratio between the amounts of Brn3A mRNA (standardized relative to the HPRT mRNA) in the right eye and in the left eye is indicated along the y-axis."}, "[2]": {"tested_on": "endogenous transfer of Otx2 to cells of the visual cortex", "experiment": "Infusion of peptides into the right visual cortex of adult mice, count of cells expressing Otx2", "format": "in vivo", "conditions": "for number of cells expressing Otx2: adult mice, 0.25 mg/ml, 1 μl/h for 7 days into right visual cortex, infused vs control hemisphere", "procedure": "For this purpose, the RK-Otx2 peptide (0.25 mg/ml), the AA-Otx2 peptide (0.25 mg/ml), or PBS buffer, combined with polysialic acid (0.25 mg/ml, in order to enable diffusion of the peptides and to avoid nonspecific binding thereof to neurons expressing polysialic acid at their surface), were slowly infused (1 μl/h) for 7 days into the right visual cortex of adult mice, using osmotic minipumps (Alzet 1003D, Alza) connected to stereotaxically implanted cannulas (Hensch et al., Science, 282, 1504-8, 1998; Fagiolini & Hensch, Nature, 404, 183-6, 2000). At the end of the infusion, the mice are perfused with 4% PFA, and brain sections (25 μm) are cut in order to study the localization of Otx2 and that of the RK-Otx2 peptide. Otx2 is visualized using a rat anti-Otx2 monoclonal antibody diluted to 1/200 (Sugiyama et al., Cell, 134, 508-20, 2008), followed by a donkey anti-rat antibody labeled with Alexa 488 (Molecular Probes), diluted to 1/2000. The RK-Otx2 peptide is visualized using streptavidin labeled with Cy5.\nThe cells expressing Otx2 were counted over a surface area of 700×350 μm encompassing layers I/II and IV of the binocular zone of the visual cortex.\nIt was verified, by Sytox green labeling, that the infusion had no effect in itself on the number of cells. In order to be sure that the decrease in the number of cells expressing Otx2 was not due to cell death, an infusion of this peptide was carried out according to the protocol described above, and the number of cells expressing Otx2 was measured 8 days after the end of the infusion."}, "[3]": {"tested_on": "binding of AP-Nt-Otx2 to bipolar cells and ganglion cells", "experiment": "Antagonism of AP-Nt-Otx2 binding to sections of retinas by peptides", "conditions": "2 μg/ml of peptide", "procedure": "In order to verify that the RK-Otx2 peptide indeed had the same binding specificity as AP-Nt-Otx2, the ability of the RK-Otx2 and AA-Otx2 polypeptides to antagonize the binding of AP-Nt-Otx2 was tested. The test for binding of AP-Nt-Otx2 to sections of retinas was carried out as described above, with the exception that the incubation of the supernatant containing AP-Nt-Otx2 was carried out in the presence of 2 μg/ml of the RK-Otx2 peptide or of the AA-Otx2 peptide."}, "[4]": {"tested_on": "retinal ganglion neurons", "conditions": "previously shown, application PCT/FR 2009/000031; cited from earlier work"}, "[5]": {"tested_on": "binding of AP-Nt-Otx2 to its target cells of the cerebral cortex", "experiment": "Blocking of AP-Nt-Otx2 binding to cortical target cells on adult mouse brain sections", "conditions": "whole Otx2 1 μg/ml, peptides 2 μg/ml", "procedure": "The interaction, with the cells of the cerebral cortex, of the AP-Otx2, AP-Nt-Otx2, AP-Hd-Otx2 and AP-HdAA-Otx2 fusion proteins ([…] a variant of AP-Nt-Otx2 in which the RK amino acid doublet has been replaced with the AA doublet), alone (culture supernatant diluted to 1/20th) or in the presence of a whole Otx2 (1 μg/ml) or of the RK-Otx2 or AA-Otx2 peptides (2 μg/ml), was tested on cryostat sections of adult mouse brains, using the protocol described in example 1 above."}, "[6]": {"tested_on": "plasticity of the visual cortex", "experiment": "Ocular dominance plasticity after 4 days monocular deprivation, single-unit extracellular electrophysiology", "format": "in vivo", "conditions": "adult mice; for ocular dominance induced by monocular deprivation: 4 days monocular deprivation after treatment", "procedure": "The RK-Otx2 peptide or the AA-Otx2 peptide was infused in adult mice (therefore after closing of the critical period of plasticity), as described in example 4 above. Chondroitinase-ABC, or the injection buffer (deionized water+0.1% BSA), were injected (0.4 μl for each injection) at 3 sites surrounding the visual cortex (AP lambda, LM 1.5 mm; AP lambda, 4.0 mm; AP+1.5 mm; LM 2.5 mm) at two different depths (300 and 500 μm).\nAfter infusion of the peptides or injection of chondroitinase ABC, the mice are subjected to monocular deprivation for 4 days, and the responses to visual stimuli are then measured by single-unit extracellular electrophysiology. The electrophysiology recordings are carried out under nembutal/chlorprothixene anesthesia using standard techniques (Gordon & Stryker, J Neurosci, 16, 3274-86, 1996; Mataga et al., Neuron, 44, 1031-41, 2004). 5 to 7 single-unit recordings were carried out for each mouse, on both sides of the medial-lateral axis of the primary visual cortex, in order to cover the monocular zone and the binocular zone, and to avoid sampling biases. Cell dominance scores were assigned to the cell responses, using a 7-point classification system (Wiesel & Hubel, J Neurophysiol, 26, 978-93, 1963) (Gordon & Stryker, J Neurosci, 16, 3274-86, 1996). The ocular dominance in the binocular zone was calculated for each mouse according to a contralateral bias index (CBI), determined as follows:\n(CBI): [(n1−n7)+⅔(n2−n6)+⅓(n3−n5)+N]/2N, where N=total number of cells and nx=number of cells corresponding to an ocular dominance score of x.\nThis weighted mean of the bias in favor of one or other eye can range from 0, for complete ipsilateral dominance, to 1, for complete contralateral dominance."}, "[7]": {"tested_on": "retinal ganglion neurons (RGCs) and bipolar cells on sections of retina", "experiment": "Binding test of AP fusion proteins and biotinylated peptides on sections of retina", "conditions": "supernatants diluted to 1/20, 2 hours at room temperature, alkaline phosphatase detection", "procedure": "The sequences encoding the human Otx2 protein or encoding the fragments tested were cloned into the vector pAPtag-5 (GenHunter), in frame with the sequence encoding alkaline phosphatase. The various constructions carried out are represented diagrammatically in FIG. 1. HEK 293 cells cultured in culture dishes 10 cm in diameter were transfected with 10 μg of each of the vectors constructed, purified beforehand, using Lipofectamine 2000 (Invitrogen) according to the manufacturer's instructions. The transfected cells were incubated for 48 hours in DMEM/F12, supplemented with 10% of fetal bovine serum (FCS). The supernatant was collected, centrifuged at 100×g for 5 minutes and stored at −80° C. This supernatant is used, without purification, for testing the binding of the chimeric proteins on sections of retina. […]\nBiotinylated peptides corresponding to various fragments of the N-terminal domain+homeodomain portion of Otx2 were synthesized and the binding thereof to sections of retina, prepared as described above, was tested. The incubation of the peptides with the sections of retina was carried out under the same conditions as those described above, and then the sections bearing the bound peptides were incubated with alkaline phosphatase-labeled streptavidin, and the alkaline phosphatase activity was detected as described above."}, "[8]": {"tested_on": "parvalbumin neurons of the visual cortex", "experiment": "WFA labeling and parvalbumin expression in visual cortex after peptide infusion", "format": "in vivo", "conditions": "adult mice", "procedure": "In addition, treated mouse brain frontal sections were prepared, as described in example 4 above, in order to determine the influence of the RK-Otx2 peptide on parvalbumin neurons. The sections were labeled either with WFA, as described in example 3, or using a mouse anti-parvalbumin monoclonal antibody ( 1/500, Sigma-Aldrich), which was visualized using a donkey anti-mouse antibody labeled with Cy3. The labeled cells were quantified as described in example 4."}, "[9]": {"tested_on": "GAGs of the perineuronal net associated with parvalbumin neurons", "experiment": "Chondroitinase ABC treatment of adult mouse brain sections: WFA labeling and AP fusion protein binding", "conditions": "brain sections incubated 24 hours with chondroitinase ABC 2 U/ml", "procedure": "In order to determine whether the perineuronal net associated with parvalbumin neurons was involved in the binding between AP-Nt-Otx2 and its target cells, the binding of AP-Otx2 was tested on cryostat sections of adult mouse brains fixed with methanol, and then incubated for 24 hours in the presence of chondroitinase ABC (2 U/ml) in a buffer containing 50 mM Tris [pH 8.0], 40 mM of sodium acetate, 0.1% BSA and protease inhibitors. In parallel, the sections, untreated or treated with chondroitinase ABC, were incubated with 0.01 mg/ml of Wisteria floribunda agglutinin lectin (WFA; Sigma-Aldrich), which binds to the GAGs of the perineuronal net, and which is labeled with FITC."}}, "note": "“Also recorded” adds a separate entry of the source. Ends that are not written are not given here.", "data": [{"compound": "CN[C@H](CC(=O)O)C(=O)O", "note": "[NMDA, N-methyl-D-aspartate, reference compound]", "values": [{"measurement": "decrease in the amount of ganglion neurons", "setting": "[1]; 1 μl of 1 mM NMDA alone into right eye, Brn3A mRNA", "result": "approximately 60%"}]}, {"compound": "AAQRRERTTFTRAQL (Targeting peptide inactive mutant) [AA-Otx2]", "values": [{"measurement": "number of cells expressing Otx2", "setting": "[2]", "result": "only a small, insignificant reduction"}, {"measurement": "blocking of the binding of AP-Nt-Otx2 to the bipolar cells and ganglion cells", "setting": "[3]", "result": "has no effect on this binding"}]}, {"compound": "Otx2: Orthodenticle homolog 2, homeoprotein containing a bicoid-type homeodomain", "values": [{"measurement": "protection of retinal ganglion neurons against the toxic effects of NMDA", "setting": "[4]", "result": "protects retinal ganglion neurons against the toxic effects of N-methyl-D-aspartate (NMDA)"}, {"measurement": "blocking of the binding of AP-Nt-Otx2 to its cortical target cells", "setting": "[5]", "result": "block the binding of AP-Nt-Otx2 to its target cells"}]}, {"compound": "RKQRRERTTFTRAQL (also: biotin (position not given here)) [RK-Otx2]", "values": [{"measurement": "ocular dominance induced by monocular deprivation", "setting": "[6]", "result": "induces an ocular dominance"}, {"measurement": "contralateral bias index (CBI)", "setting": "[6]; after peptide infusion and 4 days monocular deprivation, decrease from 0.7", "result": 0.57}, {"measurement": "amount of peptide detected in the visual cortex", "setting": "[2]; 8 days after the end of infusion", "result": "only very small amounts"}, {"measurement": "number of cells expressing Otx2 in the treated hemisphere", "setting": "[2]; 8 days after the end of the infusion", "result": "restored to the level of that of the control hemisphere"}, {"measurement": "number of cells expressing Otx2", "setting": "[2]", "result": "significantly reduces the number of cells expressing Otx2"}, {"measurement": "binding to retinal cells", "setting": "[7]", "result": "has the same binding specificity as the AP-Otx2 and AP-Nt-Otx2 fusion proteins; also recorded: binds, like AP-Nt-Otx2, to the ganglion and bipolar cells"}, {"measurement": "expression of the sites for the binding of WFA and of parvalbumin", "setting": "[8]; after peptide infusion", "result": "decreases the expression of the sites for the binding of WFA, and also that for parvalbumin"}, {"measurement": "decrease in the number of cells surrounded by sites for the binding of WFA", "setting": "[8]; infused vs control hemisphere", "result": 51.3, "unit": "%"}, {"measurement": "decrease in the number of parvalbumin-positive cells", "setting": "[8]; infused vs control hemisphere", "result": 56.2, "unit": "%"}, {"measurement": "blocking of the binding of AP-Nt-Otx2 to its cortical target cells", "setting": "[5]", "result": "block the binding of AP-Nt-Otx2 to its target cells"}, {"measurement": "blocking of the binding of AP-Nt-Otx2 to the bipolar cells and ganglion cells", "setting": "[3]", "result": "blocks the binding of AP-Nt-Otx2 to the bipolar cells and to the ganglion cells"}]}, {"compound": "chimeric polypeptide: amino acids 1-97 of Otx2 (N-terminal domain and homeodomain) fused with the VP16 trans-activator domain of the herpes virus (SEQ ID NO: 4) (MLGDGDSPGPGFTPHDSAPYGALDMADFEFEQMFTDALGIDEYGG; VP16 transactivator domain)", "values": [{"measurement": "protection of ganglion neurons against the toxic effects of NMDA (Brn3A mRNA ratio right eye/left eye)", "setting": "[1]; 1 μl into right eye, 1 mM NMDA plus 30 ng chimeric polypeptide", "result": "effectively protects the ganglion neurons against the toxic effects of the NMDA"}]}, {"compound": "chondroitinase ABC", "values": [{"measurement": "effect of chondroitinase ABC treatment on binding of the AP fusion protein", "setting": "[9]", "result": "abolishes the binding of AP-Nt-Otx2"}, {"measurement": "effect on GAGs of the perineuronal net (WFA labeling)", "setting": "[9]", "result": "destroys the GAGs of the perineuronal net"}, {"measurement": "ocular dominance induced by monocular deprivation", "setting": "[6]", "result": "as in those treated with the chondroitinase ABC"}]}]}
